Broadly, the IC50 is the point on the concentration scale where inhibition reaches its midpoint.

Holding throughout (type): biochemical
One experiment concerns the target T1, PI3K alpha (Homo sapiens, UniProt P42336).
T1 construct: p85(iSH2) fusion partner (see partner chain) (N); His tag (C); made in house; host or cells: baculovirus; Tn5 (Trichoplusia ni) or TiniPro insect cells
Kind of experiment: PI3K alpha kinase assay (Kinase-Glo luminescence). The procedure, abridged: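 PI3Kα construct EMV B1075 (10 nM final) was preincubated with 10 μg/mL phosphatidylinositol in 10 mM Tris-HCl pH 7.5, 3 mM MgCl2, 50 mM NaCl, 0.05% CHAPS, 1 mM DTT. Reaction started with 1 μM ATP, 60 min at room temperature; remaining ATP measured by Kinase-Glo luminescence. IC50 from 4-parameter logistic fit of 8-point titrations.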
In general terms: In Kinase-Glo more light means more ATP remaining.

Another experiment addresses T2, PI3K beta (Homo sapiens, UniProt P42338).
T2 construct: for the full-length p110-b subunit are generated and fused by overlapping PCR; p85(iSH2) fusion partner (see partner chain) (N); His tag (C); made in house; host or cells: baculovirus; Tn5 (Trichoplusia ni) or TiniPro insect cells
Kind of experiment: PI3K beta kinase assay (Kinase-Glo luminescence). The procedure, abridged:
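Residual ATP after a 60 min room-temperature reaction is quantified by Kinase-Glo luminescence. Enzyme: 25 nM BV-949 (p85 iSH2–linker–full-length p110β); substrates 1 μM ATP, 10 μg/mL PI; buffer Tris pH 7.5, MgCl2, NaCl, CHAPS, DTT. Eight concentrations per compound, four-parameter logistic IC50.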

The target of the next experiment is T3, PI3K delta (Homo sapiens, UniProt O00329).
T3 construct: for the full-length p110-d subunit are generated and fused by overlapping PCR; p85(iSH2) fusion partner (see partner chain) (N); His tag (C); made in house; host or cells: baculovirus; Tn5 (Trichoplusia ni) or TiniPro insect cells
T3 sequence (O00329 with tags, fused parts or gaps limits assumed): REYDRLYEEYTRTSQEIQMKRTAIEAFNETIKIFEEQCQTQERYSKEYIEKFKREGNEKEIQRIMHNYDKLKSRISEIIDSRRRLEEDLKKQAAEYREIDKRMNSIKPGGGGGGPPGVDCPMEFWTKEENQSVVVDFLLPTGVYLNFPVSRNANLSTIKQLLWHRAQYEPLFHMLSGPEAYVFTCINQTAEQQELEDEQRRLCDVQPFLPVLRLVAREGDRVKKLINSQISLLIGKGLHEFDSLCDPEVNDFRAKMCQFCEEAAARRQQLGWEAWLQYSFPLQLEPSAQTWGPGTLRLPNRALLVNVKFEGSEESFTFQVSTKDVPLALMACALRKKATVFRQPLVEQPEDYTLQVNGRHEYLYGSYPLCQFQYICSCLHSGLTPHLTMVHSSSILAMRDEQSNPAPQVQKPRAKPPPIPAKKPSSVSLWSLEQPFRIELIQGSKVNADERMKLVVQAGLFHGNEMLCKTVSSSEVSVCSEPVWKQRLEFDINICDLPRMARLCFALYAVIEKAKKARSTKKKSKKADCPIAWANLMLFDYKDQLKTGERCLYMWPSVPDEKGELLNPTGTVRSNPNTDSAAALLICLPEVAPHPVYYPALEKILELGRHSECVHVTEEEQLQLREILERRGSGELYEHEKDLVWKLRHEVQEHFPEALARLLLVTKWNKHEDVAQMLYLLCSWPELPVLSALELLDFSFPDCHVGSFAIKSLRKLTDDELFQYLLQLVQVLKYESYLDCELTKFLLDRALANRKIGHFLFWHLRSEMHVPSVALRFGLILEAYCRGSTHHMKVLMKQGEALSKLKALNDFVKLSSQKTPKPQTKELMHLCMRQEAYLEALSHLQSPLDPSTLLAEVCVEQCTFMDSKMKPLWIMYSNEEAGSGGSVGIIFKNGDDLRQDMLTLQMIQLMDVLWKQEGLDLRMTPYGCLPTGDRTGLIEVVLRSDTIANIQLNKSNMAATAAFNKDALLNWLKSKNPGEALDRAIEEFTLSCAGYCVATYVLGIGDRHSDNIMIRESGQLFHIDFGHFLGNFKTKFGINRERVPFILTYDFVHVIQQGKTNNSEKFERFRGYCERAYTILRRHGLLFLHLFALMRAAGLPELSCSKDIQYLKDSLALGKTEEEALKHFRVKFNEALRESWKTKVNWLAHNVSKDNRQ
As to the kind of experiment: PI3K delta kinase assay (Kinase-Glo luminescence). The procedure, abridged:
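Recombinant p85(iSH2)-Gly linker-p110δ full-length construct (BV1060, C-terminal His tag) was used at 10 nM with 10 μg/mL phosphatidylinositol and 1 μM ATP in 10 mM Tris-HCl pH 7.5, 3 mM MgCl2, 50 mM NaCl, 0.05% CHAPS, 1 mM DTT. After 60 min at room temperature, remaining ATP was measured by Kinase-Glo luminescence.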

T2 sequence (P42338 with tags, fused parts or gaps limits assumed): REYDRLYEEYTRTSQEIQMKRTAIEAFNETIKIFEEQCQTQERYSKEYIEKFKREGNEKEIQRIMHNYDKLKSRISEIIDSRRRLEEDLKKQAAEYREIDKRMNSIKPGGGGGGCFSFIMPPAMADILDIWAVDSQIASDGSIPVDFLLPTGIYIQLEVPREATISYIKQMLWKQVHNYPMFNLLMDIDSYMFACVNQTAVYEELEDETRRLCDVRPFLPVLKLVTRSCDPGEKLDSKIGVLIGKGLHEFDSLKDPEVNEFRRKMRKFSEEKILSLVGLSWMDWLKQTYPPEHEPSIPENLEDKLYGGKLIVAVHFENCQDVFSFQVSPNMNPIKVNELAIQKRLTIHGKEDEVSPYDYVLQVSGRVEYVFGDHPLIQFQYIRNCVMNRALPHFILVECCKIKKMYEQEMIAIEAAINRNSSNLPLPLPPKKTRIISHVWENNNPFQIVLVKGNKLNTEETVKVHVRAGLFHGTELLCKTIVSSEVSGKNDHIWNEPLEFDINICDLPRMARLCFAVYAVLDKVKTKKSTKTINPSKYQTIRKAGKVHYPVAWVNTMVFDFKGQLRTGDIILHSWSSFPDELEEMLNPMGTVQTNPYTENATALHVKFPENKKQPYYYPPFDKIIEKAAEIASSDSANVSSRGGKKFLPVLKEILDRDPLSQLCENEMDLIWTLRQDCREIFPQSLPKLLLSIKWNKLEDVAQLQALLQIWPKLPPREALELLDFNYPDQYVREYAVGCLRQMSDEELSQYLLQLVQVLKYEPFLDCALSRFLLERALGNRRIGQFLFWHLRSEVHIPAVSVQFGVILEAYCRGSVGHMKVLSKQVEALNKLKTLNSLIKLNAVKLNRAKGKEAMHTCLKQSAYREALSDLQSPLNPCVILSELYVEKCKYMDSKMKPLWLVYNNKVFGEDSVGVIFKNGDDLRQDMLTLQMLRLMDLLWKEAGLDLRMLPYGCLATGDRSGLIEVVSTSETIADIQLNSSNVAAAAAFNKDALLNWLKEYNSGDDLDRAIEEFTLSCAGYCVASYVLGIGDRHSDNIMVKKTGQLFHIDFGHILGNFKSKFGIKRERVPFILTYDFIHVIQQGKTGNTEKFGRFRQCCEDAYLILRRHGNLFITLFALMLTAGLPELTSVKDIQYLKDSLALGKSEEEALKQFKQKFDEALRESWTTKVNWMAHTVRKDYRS
T1 sequence (P42336 with tags, fused parts or gaps limits assumed): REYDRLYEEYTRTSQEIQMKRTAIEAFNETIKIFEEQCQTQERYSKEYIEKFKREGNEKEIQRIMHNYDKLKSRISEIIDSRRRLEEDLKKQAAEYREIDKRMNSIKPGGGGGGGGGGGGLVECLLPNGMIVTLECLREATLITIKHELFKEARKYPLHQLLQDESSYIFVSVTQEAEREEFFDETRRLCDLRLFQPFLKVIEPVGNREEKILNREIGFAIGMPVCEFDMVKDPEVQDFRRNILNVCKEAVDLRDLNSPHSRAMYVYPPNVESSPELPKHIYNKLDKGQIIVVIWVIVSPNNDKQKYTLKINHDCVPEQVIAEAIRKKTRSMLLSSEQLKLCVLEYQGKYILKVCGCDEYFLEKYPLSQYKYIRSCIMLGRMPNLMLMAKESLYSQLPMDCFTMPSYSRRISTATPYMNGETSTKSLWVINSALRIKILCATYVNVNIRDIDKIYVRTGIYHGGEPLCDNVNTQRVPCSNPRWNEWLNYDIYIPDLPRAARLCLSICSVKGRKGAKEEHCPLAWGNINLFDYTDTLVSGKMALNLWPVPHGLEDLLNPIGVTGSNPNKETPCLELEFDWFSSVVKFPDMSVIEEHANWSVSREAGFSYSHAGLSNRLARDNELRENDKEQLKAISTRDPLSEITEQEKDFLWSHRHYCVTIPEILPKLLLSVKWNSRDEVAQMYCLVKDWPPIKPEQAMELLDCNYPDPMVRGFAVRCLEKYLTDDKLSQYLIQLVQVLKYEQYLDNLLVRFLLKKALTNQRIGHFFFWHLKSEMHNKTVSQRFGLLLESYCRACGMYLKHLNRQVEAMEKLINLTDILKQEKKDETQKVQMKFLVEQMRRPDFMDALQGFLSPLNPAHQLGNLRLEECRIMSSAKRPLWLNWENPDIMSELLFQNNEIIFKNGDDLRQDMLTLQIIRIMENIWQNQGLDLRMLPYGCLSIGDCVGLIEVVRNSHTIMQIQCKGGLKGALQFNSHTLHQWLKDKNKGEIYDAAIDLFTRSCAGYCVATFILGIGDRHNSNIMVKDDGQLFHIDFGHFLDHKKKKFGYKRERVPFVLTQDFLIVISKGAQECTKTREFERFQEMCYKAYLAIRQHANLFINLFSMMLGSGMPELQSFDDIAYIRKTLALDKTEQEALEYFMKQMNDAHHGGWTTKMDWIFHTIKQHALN

Turning to `Cc1nn(C)cc1-n1c(=O)n(C)c2cnc3ccc(-c4cnc5c(c4)C(C)(C)C(=O)N5C)cc3c21` [Example 233, 1-(1,3-Dimethyl-1H-pyrazol-4-yl)-3-methyl-8-(1,3,3-trimethyl-2-oxo-2,3-dihydro-1H-pyrrolo[2,3-b]pyridin-5-yl)-1,3-dihydro-imidazo[4,5-c]quinolin-2-one], the 50% inhibitory concentration (IC50) at PI3K alpha stood at 22 nM; on PI3K beta, 39 nM; on PI3K delta, 15 nM.
The matching figures for `CCNc1cc(-c2ccc3ncc4c(c3c2)n(-c2c(C)nn(C)c2C)c(=O)n4C)cnc1CO` [Example 155.4, 8-(5-Ethylamino-6-hydroxymethyl-pyridin-3-yl)-3-methyl-1-(1,3,5-trimethyl-1H-pyrazol-4-yl)-1,3-dihydro-imidazo[4,5-c]quinolin-2-one]: 125 nM, 55 nM and 11 nM.
In the same order, the values of `CCn1cc(-n2c(=O)n(C)c3cnc4ccc(-c5cncc(C(C)(C)O)c5)cc4c32)c(C)n1` [Example 215.4, 1-(1-Ethyl-3-methyl-1H-pyrazol-4-yl)-8-[5-(1-hydroxy-1-methyl-ethyl)-pyridin-3-yl]-3-methyl-1,3-dihydro-imidazo[4,5-c]quinolin-2-one] are 6 nM, 12 nM and 10 nM.
Consider `COC(C)(C)c1cncc(-c2ccc3ncc4c(c3c2)n(-c2cn(C)nc2C)c(=O)n4C)c1` [Example 239, 1-(1,3-Dimethyl-1H-pyrazol-4-yl)-8-[5-(1-methoxy-1-methyl-ethyl)-pyridin-3-yl]-3-methyl-1,3-dihydro-imidazo[4,5-c]quinolin-2-one], for which the IC50 at PI3K alpha amounted to 10 nM; at PI3K beta it was 13 nM; on PI3K delta, 3 nM.
In the same order, the values of `CCOc1cc(-c2ccc3ncc4c(c3c2)n(-c2cn(C)nc2C)c(=O)n4C)cnc1C` [Example 85.1, 1-(1,3-Dimethyl-1H-pyrazol-4-yl)-8-(5-ethoxy-6-methyl-pyridin-3-yl)-3-methyl-1,3-dihydro-imidazo[4,5-c]quinolin-2-one] are 6 nM, 12 nM and 3 nM.
In the same order, the values of `CCOc1ccc(-c2ccc3ncc4c(c3c2)n(-c2cn(CCO)nc2C)c(=O)n4C)cn1` [Example 103.2, 8-(6-Ethoxy-pyridin-3-yl)-1-[1-(2-hydroxy-ethyl)-3-methyl-1H-pyrazol-4-yl]-3-methyl-1,3-dihydro-imidazo[4,5-c]quinolin-2-one] are 42 nM, 332 nM and 71 nM.
In the same order, the values of `Cc1nn(C)cc1-n1c(=O)n(C)c2cnc3ccc(-c4cnc(F)c(N)c4)cc3c21` [Example 149.2, 8-(5-Amino-6-fluoro-pyridin-3-yl)-1-(1,3-dimethyl-1H-pyrazol-4-yl)-3-methyl-1,3-dihydro-imidazo[4,5-c]quinolin-2-one] are 7 nM, 12 nM and 8 nM.
Take `CCNc1cc(-c2ccc3ncc4c(c3c2)n(-c2c(C)nn(C)c2C)c(=O)n4C)cnc1Cl` [Example 153.1, 8-(6-Chloro-5-ethylamino-pyridin-3-yl)-3-methyl-1-(1,3,5-trimethyl-1H-pyrazol-4-yl)-1,3-dihydro-imidazo[4,5-c]quinolin-2-one]: the 50% inhibitory concentration (IC50) at PI3K alpha was determined as 10 nM; at PI3K beta, 14 nM; at PI3K delta it was 3 nM.
In the same order, the values of `Cc1nn(CCO)cc1-n1c(=O)n(C)c2cnc3ccc(-c4cncc(N5CCOCC5)c4)cc3c21` [Example 175.3, 1-[1-(2-Hydroxy-ethyl)-3-methyl-1H-pyrazol-4-yl]-3-methyl-8-(5-morpholin-4-yl-pyridin-3-yl)-1,3-dihydro-imidazo[4,5-c]quinolin-2-one] are 44 nM, 559 nM and 126 nM.
In the same order, the values of `CCOc1cc(-c2ccc3ncc4c(c3c2)n(-c2cn(CCO)nc2C)c(=O)n4C)cnc1C` [Example 211.2, 8-(5-Ethoxy-6-methyl-pyridin-3-yl)-1-[1-(2-hydroxy-ethyl)-3-methyl-1H-pyrazol-4-yl]-3-methyl-1,3-dihydro-imidazo[4,5-c]quinolin-2-one] are 6 nM, 17 nM and 9 nM.
As to `Cc1nn(C(C)C)cc1-n1c(=O)n(C)c2cnc3ccc(-c4cnc(F)c(N)c4)cc3c21` [Example 149.1, 8-(5-Amino-6-fluoro-pyridin-3-yl)-1-(1-isopropyl-3-methyl-1H-pyrazol-4-yl)-3-methyl-1,3-dihydro-imidazo[4,5-c]quinolin-2-one], the results for the IC50 on PI3K alpha, at PI3K beta and on PI3K delta were 48 nM, 68 nM and 17 nM, respectively.
In the same order, the values of `CNC(=O)c1cc(-c2ccc3ncc4c(c3c2)n(-c2cn(C)nc2C)c(=O)n4C)cnc1N` [Example 224.1, 2-Amino-5-[1-(1,3-dimethyl-1H-pyrazol-4-yl)-3-methyl-2-oxo-2,3-dihydro-1H-imidazo[4,5-c]quinolin-8-yl]-N-methyl-nicotinamide] are 15 nM, 62 nM and 29 nM.
On to `CCNc1cc(-c2ccc3ncc4c(c3c2)n(-c2cn(C)nc2C)c(=O)n4C)cnc1CC` [Example 161, 1-(1,3-Dimethyl-1H-pyrazol-4-yl)-8-(6-ethyl-5-ethylamino-pyridin-3-yl)-3-methyl-1,3-dihydro-imidazo[4,5-c]quinolin-2-one], for which the IC50 stood at 9 nM at PI3K alpha, 18 nM on PI3K beta and 8 nM on PI3K delta.
Consider `Cc1cc(-n2c(=O)n(C)c3cnc4ccc(-c5ccc(C(F)(F)F)nc5)cc4c32)n(C)n1` [Example 8.2, 1-(2,5-Dimethyl-2H-pyrazol-3-yl)-3-methyl-8-(6-trifluoromethyl-pyridin-3-yl)-1,3-dihydro-imidazo[4,5-c]quinolin-2-one], for which the figures for the 50% inhibitory concentration (IC50) on PI3K alpha, on PI3K beta and at PI3K delta were 95 nM, 387 nM and 120 nM, respectively.
In the same order, the values of `Cc1nn(C)cc1-n1c(=O)n(C)c2cnc3ccc(-c4cncc(OCC5CC5)c4)cc3c21` [Example 61, 8-(5-Cyclopropylmethoxy-pyridin-3-yl)-1-(1,3-dimethyl-1H-pyrazol-4-yl)-3-methyl-1,3-dihydro-imidazo[4,5-c]quinolin-2-one] are 12 nM, 25 nM and 17 nM.
Regarding `Cc1nn(C)c(C)c1-n1c(=O)n(C)c2cnc3ccc(-c4cnc(N)nc4)cc3c21` [Example 81.2, 8-(2-Amino-pyrimidin-5-yl)-3-methyl-1-(1,3,5-trimethyl-1H-pyrazol-4-yl)-1,3-dihydro-imidazo[4,5-c]quinolin-2-one], the values for the IC50 at PI3K alpha, at PI3K beta and at PI3K delta were 51 nM, 281 nM and 30 nM, respectively.
For the compound `CNc1ncc(-c2ccc3ncc4c(c3c2)n(-c2cn(C)nc2C)c(=O)n4C)cc1C(F)(F)F` [Example 144.3, 1-(1,3-Dimethyl-1H-pyrazol-4-yl)-3-methyl-8-(6-methylamino-5-trifluoromethyl-pyridin-3-yl)-1,3-dihydro-imidazo[4,5-c]quinolin-2-one], the IC50 was determined as 10 nM on PI3K alpha, 16 nM on PI3K beta and 9 nM at PI3K delta.

The values are drawn from US20140005163A1 (NOVARTIS AG, priority 2010, published 2014).
